“Also recorded” adds a separate entry of the source.

The subject of assay [1] is 8×GTIIC (TEAD luciferase reporter). Briefly: Cytosolic peptide expression with 8×GTIIC TEAD luciferase reporter. To be noted: mCherry-T2a-peptide co-transfected with FLAG-YAP and 8×GTIIC; vs. YAP only. The assay is classed as cell-based. From the text: Cytosolic Peptide Expression. Peptides, FLAG-tagged or not, can be cloned into a mammalian expression vector consisting of a CMV promoter, then a monocistronic mCherry-T2a-peptide sequence. These can be transfected, along with (where indicated) pFLAG-YAP1 and 8×GTIIC-luciferase (Addgene plasmid #34615) into 293T cells. 24 hrs post-transfection, cells can be either harvested for luminescence (ONE-Glo, Promega) or Western blot (anti-FLAG M2, Sigma). Protein Transfection with dfTAT Reagent. Solution was diluted to 50 μM in PBS for a 10× working stock, for a final concentration of 5 μM in culture wells. […] For confirmation of peptide cell penetration, 293T and HeLa cells can be plated in a 96-well plate in DMEM with 10% FBS, 1× penicillin/streptomycin (Pen/Strep) and grown overnight to ˜50% confluence. Cells can be gently washed 3 times with PBS containing 1 mM CaCl2) and 0.5 mM MgCl2, then 2 times in serum-free DMEM. Wells (50 μL total) received either 5 μM (final) peptide in PBS, or PBS alone, and can also receive either 5 μM (final) dfTAT reagent in PBS, or PBS alone, before a 60 minute incubation at 37° C. and 5% CO2 in a humidified tissue culture incubator. After incubation, cells can be gently washed 3 times in PBS, which can be followed by fixation at 4° C. for 10 minutes with 4% formaldehyde in PBS. […]
For orientation: In a reporter assay the amount or activity of a reporter protein is the signal.

The target of the next assay is T1, biotinylated TEAD (Homo sapiens, UniProt P28347).
T1 construct: GST; made in house; host or cells: Hi5 insect cells (baculovirus, BacMagic, pIEX-BAC3)
T1 sequence (P28347 209-426): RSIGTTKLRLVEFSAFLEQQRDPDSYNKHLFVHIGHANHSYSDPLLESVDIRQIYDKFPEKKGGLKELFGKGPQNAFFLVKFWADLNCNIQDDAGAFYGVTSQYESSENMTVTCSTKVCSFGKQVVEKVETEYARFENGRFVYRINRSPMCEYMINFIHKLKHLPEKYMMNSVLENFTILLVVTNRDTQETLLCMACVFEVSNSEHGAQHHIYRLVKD
Briefly: Surface plasmon resonance (SPR) binding of soluble peptides to captured biotinylated TEAD. Particulars: soluble peptides.

Assay [2] concerns the target T2, TEAD (Homo sapiens, UniProt P28347).
T2 construct: GST; made in house; host or cells: Hi5 insect cells (baculovirus, BacMagic, pIEX-BAC3)
The assay can be described thus: Mammalian surface display (SDGF vector, HEK-293 cells) TEAD-binding flow cytometry. Background: Flow cytometry measures light scatter and fluorescence of single cells or particles in a stream.

A further assay has as its target T3, YAP-TEAD interaction (Homo sapiens, UniProt P28347).
T3 construct: expressed in transfected cells; host or cells: 293T cells (lysates)
Briefly: YAP-TEAD disruption co-immunoprecipitation (Myc-TEAD resin, FLAG-YAP lysate). The assay is classed as biochemical. Particulars: for FLAG-YAP pull-down with Myc-TEAD resin in the presence of peptide: Silver stain and Western blot. On the technique in general: A western blot detects proteins with antibodies after separation by electrophoresis.

For assay [3], the target named is T2, TEAD. The assay can be described thus: TEAD binding of SDGF-displayed peptides after exposure to reducing agent. To be noted: 5 minutes, 20 nM TEAD. The method, then:
Peptides of this disclosure were also tested to evaluate if binding to TEAD was affected by exposure of peptide to reducing conditions. […] Cultures were grown for two days followed by incubation in 10 mM GSH or 10 mM DTT. Finally, cells were stained with TEAD. FIG. 13 illustrates binding to TEAD after cells expressing SDGF-SEQ ID NO: 9 are exposed to a reducing agent. FIG. 13A illustrates a flow cytometry plot showing binding of HEK-293 suspension cells transfected with SDGF-SEQ ID NO: 1 (GFP) incubated for 5 minutes in PBS, 10 mM DTT, or 10 mM glutathione (GSH) before staining with 20 nM biotinylated TEAD and 20 nM AF647-streptavidin. FIG. 13B illustrates a flow cytometry plot showing binding of HEK-293 suspension cells transfected with SDGF-SEQ ID NO: 9 (GFP) incubated for 5 minutes in PBS, 10 mM DTT, or 10 mM glutathione (GSH) before staining with 20 nM biotinylated TEAD and 20 nM AF647-streptavidin.

In assay [4] the target is T4, TEAD binding to surface-displayed YAP (Homo sapiens, UniProt P28347).
T4 construct: made in house; host or cells: TEAD: Hi5 insect cells
T4 sequence (P28347 209-426): as above
Briefly: Competitive binding of peptides to TEAD versus cell surface-displayed YAP (flow cytometry). The protocol:
FIG. 11D illustrates a flow cytometry plot of cells expressing SDGF-YAP that were incubated with 5 nM TEAD and then washed. Cells were immediately stained with AF647-streptavidin and analyzed for YAP-expressing cells that have bound TEAD. FIG. 11E illustrates a flow cytometry plot of cells expressing SDGF-YAP that were incubated with 5 nM TEAD and then washed. Cells were incubated on ice for 1 hour, stained with AF647-streptavidin and analyzed for YAP-expressing cells that have bound TEAD. FIG. 11F illustrates a flow cytometry plot of cells expressing SDGF-YAP that were incubated with 5 nM TEAD and then washed. […] FIG. 11G illustrates a flow cytometry plot of cells expressing SDGF-YAP that were incubated with 5 nM TEAD and then washed.

Another assay has as its target T5, YAP:TEAD dimers (Homo sapiens, UniProt P28347).
T5 construct: endogenous in cells; host or cells: HeLa cells
The assay can be described thus: YAP:TEAD proximity ligation assay (PLA) in HeLa cells. The assay is classed as cell-based. To be noted: 5 μM peptide with 5 μM dfTAT. The protocol:
Proximity Ligation Assay. […] HeLa cells can be seeded in an 8-well chamber slide (Nunc Lab-Tek II) in DMEM+10% FBS and 1× Pen/Strep, and can be grown overnight, reaching ˜50% confluence. Cells can be gently washed 3 times with PBS containing 1 mM CaCl2 and 0.5 mM MgCl2, then 2 times in serum-free DMEM. Wells (120 μL total) can receive either 5 μM (final) peptide in PBS, or PBS alone, and can also receive either 5 μM (final) dfTAT reagent in PBS, or PBS alone, before a 90 minute incubation at 37° C. and 5% CO2 in a humidified tissue culture incubator. After incubation, cells can be gently washed 3 times in PBS, followed by fixation at 4° C. for 10 minutes with 4% formaldehyde in PBS. […]
PLA can be performed using the Duolink In Situ Fluorescence (Far Red) kit according to manufacturer's instructions, using supplied buffers without substitution and at recommended volumes for 1 cm^2 samples. […] For quantitation of nuclear speckles in ImageJ, UV and Cy5.5 filtered images can be Z-projected (maximum intensity), and can be processed using a custom macro to identify nuclear boundaries (UV channel) and speckles (Cy5.5 channel). […]
Proximity ligation assay (PLA) in HeLa cells was performed using primary antibodies against YAP and TEAD, in which speckles (APC channel) overlapping DAPI-stained nuclei (UV channel) were produced. […] All P-values were determined by two-tailed T-test.

T2 sequence (P28347 209-426): as above
T3 sequence (P28347 whole entry): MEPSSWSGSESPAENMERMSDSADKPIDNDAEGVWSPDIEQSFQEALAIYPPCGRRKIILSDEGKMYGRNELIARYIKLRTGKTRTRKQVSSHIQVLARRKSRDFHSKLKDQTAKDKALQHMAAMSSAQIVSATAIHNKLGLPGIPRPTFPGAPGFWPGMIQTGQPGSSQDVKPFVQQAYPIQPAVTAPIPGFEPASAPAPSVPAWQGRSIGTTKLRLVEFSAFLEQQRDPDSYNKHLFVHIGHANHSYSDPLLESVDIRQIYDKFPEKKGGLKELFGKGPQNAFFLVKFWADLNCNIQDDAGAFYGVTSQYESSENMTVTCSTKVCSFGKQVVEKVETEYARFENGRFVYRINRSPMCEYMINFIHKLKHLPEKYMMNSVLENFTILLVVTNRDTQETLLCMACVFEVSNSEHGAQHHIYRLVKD
T5 sequence (P28347 whole entry): as above

As for “GSPDEYIERAKECCKKGDIQCCLRIFDESKDPNVMLICLFCW [SEQ ID NO: 12]”, the “TEAD luciferase reporter activity (relative luminescence units)” value in assay [1] was “reduced”.

Take “GSPDEYIERAKECCKKGDIQCCLRYFEESGDPNVMLICLACP [SEQ ID NO: 7]”: the “affinity/binding to TEAD as compared to a peptide of SEQ ID NO: 1” value at biotinylated TEAD was “reduced affinity for TEAD”. Moreover, the “TEAD binding of cells displaying variant versus parent peptide” value on TEAD [2] (HEK-293 suspension cells transfected with SDGF constructs) is reported as “loss of binding to TEAD”. Also, the “FLAG-YAP pull-down with Myc-TEAD resin in the presence of peptide” value at YAP-TEAD interaction is on record as “not pulled down”.

Turning to “GSPDEYIERAKECCKKGDIQCCLRYFEESGDPNVMLICLFCP [SEQ ID NO: 1]”, the “TEAD binding profile of displayed peptide” value on TEAD [2] (20 nM TEAD concentration and 2-step staining) was “apparent but weak”. Besides, at TEAD [2] (stained with 200 nM AF647-Streptavidin-TEAD), the “TEAD binding of HEK-293 cells expressing SDGF-peptide” value is listed as “displayed binding to TEAD”. Moreover, the “FLAG-YAP pull-down with Myc-TEAD resin in the presence of peptide” value on YAP-TEAD interaction is recorded as “not pulled down”. Further, the “inhibition of FLAG-YAP binding to Myc-TEAD resins” value at YAP-TEAD interaction (dilution series of peptide, Western blot) was “dose-dependent inhibition”. Moreover, the “binding to TEAD after reducing agent treatment” value is on record as “partial loss in binding to TEAD” on TEAD [3] (10 mM DTT) and “no loss in binding to TEAD” at TEAD [3] (10 mM GSH).

For the sequence “GSPDEYIERAKECCKKQDIQCCLRIFDESKDPNVMLICLFCW [SEQ ID NO: 9]”, at TEAD [2] (20 nM TEAD, Normal and Extra Wash protocols), the “mean fluorescence intensity (MFI) of TEAD staining normalized to SEQ ID NO: 1” value is listed as “performed the best”. Also, the “TEAD binding to YAP-displaying cells” value was “near complete elimination of TEAD binding to YAP” in assay [4] (YAP-displaying cells first incubated with TEAD prior to addition of peptide) and “near complete elimination of TEAD binding to YAP” in assay [4] (cells incubated with peptide, then 5 nM TEAD). In addition, the “binding to TEAD after reducing agent treatment” value at TEAD [3] (10 mM DTT) and at TEAD [3] (10 mM GSH) was “no loss in binding to TEAD” each time. The “YAP:TEAD PLA speckles per nucleus” value at YAP:TEAD dimers is given as “significantly reduces YAP:TEAD dimers in the nucleus; also recorded: significantly reduced”.

These data come from US11548923B2, “Peptide compositions and methods of use thereof for disrupting TEAD interactions” (Fred Hutchinson Cancer Center, priority 2017, dated 2023).
